The source of these data is patent US12410191B2, “Macrolide derivatives, preparation method and application thereof” (ZHEJIANG HISUN PHARMACEUTICAL CO., LTD., priority 2019, dated 2025).

The conditions of data set [1]: amide bond, pentafluorophenyl diphenylphosphinate (FDPP), dichloromethane, 25.0 °C.
Data set [2] can be described thus: Pharmacokinetic study on ICR mice. It is filed as in vivo. As to the method:
ICR mice, male, 29.0 g to 33.8g, purchased from Beijing Charles River Laboratory Animal Technology Co., Ltd.
Intravenous injection group: an appropriate amount of drug was weighed, and added with mixed solvent (DMA: 30% Solutol HS-15: Saline=10:10:80 (v/v/v)) to prepare the drug with a final concentration of 0.2 mg/mL.
Oral gavage administration group: an appropriate amount of drug was weighed, added with an appropriate amount of sodium carboxymethyl cellulose (CMC-Na, containing 0.5% Tween 80), vortex shaked, and ultrasonically prepared into […] suspension.
For ICR mice, each compound to be tested was divided into an intravenous injection group (9 mice in each group) and an intragastric group (9 mice in each group). The ICR mice were fasted overnight and then administered by orbital intravenous injection (administration dose of 1 mg/kg, and administration volume of 5 mL/kg) and administered by intragastric injection (administration dose of 5 mg/kg, and administration volume of 10 mL/kg), and ate 4 hours after administration. 3. Operation
About 0.2 mL of blood was collected via jugular vein before administration and 0.083 hour, 0.25 hour, 0.5 hour, 1 hour, 2 hours, 4 hours, 8 hours, 12 hours and 24 hours after administration, and heparin sodium was used for anticoagulation. The collected blood samples were placed on ice, and plasma was separated by centrifugation (centrifugation condition: 1500 g, 10 minutes). The collected plasma was stored at −40° C. to −20° C. before analysis.
LC-MS/MS was used to determine the contents of different compounds to be tested in mouse plasma after intravenous injection and intragastric administration.

Read-outs that look alike come from different tables or passages of the source.

`C[C@H]1Nc2ccn3ncc(c3n2)C(=O)NC[C@@]2(C)Cc3cc(F)cc1c3O2` [Example 8, (3R,11R)-6-fluoro-3,11-dimethyl-10-oxa-2,13,17,18,21-pentaazapentacyclo[13.5.2.1^8,11.0^4,9.0^18,22]tricosa-1(21),4,6,8,15(22),16,19-heptaen-14-one] returned a ring closure, yield of all isomers in data set [1] (from C[C@@H](Nc1ccn2ncc(C(=O)O)c2n1)c1cc(F)cc2c1O[C@@](C)(CN)C2, N,N-diisopropylethylamine, 172.0 mM) of 26.3%. Moreover, in data set [2], the “bioavailability relative to repotrectinib” value is on record as 4.1 times. In addition, in data set [2] (5 mg/kg oral), the “AUC0-∞ relative to repotrectinib” value is listed as 10.6 times and the “Cmax relative to repotrectinib” value is 14.7 times.

With `C[C@H]1Nc2ccn3ncc(c3n2)C(=O)NCC[C@H]2Cc3cc(F)cc1c3O2`, in data set [1] (from C[C@@H](Nc1ccn2ncc(C(=O)O)c2n1)c1cc(F)cc2c1OC(CCN)C2, DIPEA, 33.0 mM, 16.0 h, 2 steps), the ring closure, yield of all isomers came out at 23.1%.

In turn, `C[C@H]1Nc2ccn3ncc(c3n2)C(=O)NCC2(C)Cc3cc(F)cc1c3O2` (stereo partly shown) displayed a ring closure, yield of all isomers in data set [1] (from C[C@@H](Nc1ccn2ncc(C(=O)O)c2n1)c1cc(F)cc2c1OC(C)(CN)C2, DIPEA, 154.8 mM, 16.0 h) of 5.9%.

Take `C[C@H]1Nc2ccn3ncc(c3n2)C(=O)NC[C@]2(C)Cc3cc(F)cc1c3O2`: the ring closure, yield of all isomers in data set [1] (from C[C@@H](Nc1ccn2ncc(C(=O)O)c2n1)c1cc(F)cc2c1O[C@](C)(CN)C2, N,N-diisopropylethylamine, 231.0 mM) was found to be 17.6%.

In data set [1] (from C[C@@H](Nc1ccn2ncc(C(=O)O)c2n1)c1cc(F)cc2c1O[C@@](C)(CCN)C2, N,N-diisopropylethylamine, 131.0 mM), `C[C@H]1Nc2ccn3ncc(c3n2)C(=O)NCC[C@@]2(C)Cc3cc(F)cc1c3O2` returned a ring closure, yield of all isomers of 18.2%.

The molecule `C[C@H]1Nc2ccn3ncc(c3n2)C(=O)NCCC2=Cc3cc(F)cc1c3O2` gave a ring closure, yield of all isomers in data set [1] (from C[C@@H](Nc1ccn2ncc(C(=O)O)c2n1)c1cc(F)cc2cc(CCN)oc12, DIPEA, 172.8 mM, 16.0 h) of 25.4%.

The molecule `C[C@H]1Nc2ccn3ncc(c3n2)C(=O)NC[C@@H]2COc3cc(F)cc1c3O2` came in with a ring closure, yield of all isomers in data set [1] (from C[C@@H](Nc1ccn2ncc(C(=O)O)c2n1)c1cc(F)cc2c1O[C@H](CN)CO2, DIPEA, 215.1 mM, 16.0 h) of 42%.
